Results taken from US20100137303A1, “NEW COMPOUND 255” (AstraZeneca AB, priority 2008, published 2010).
In brackets after ≈: the same amount, converted by molar mass.

Experiments:
Msm. GyrB = biological target: T1, Msm. GyrB (Mycolicibacterium smegmatis, UniProt A0QNE0); assay: Msmegmatis GyrB enzyme assay (ATPase, malachite green phosphate detection); format: biochemical; conditions: read-out: Msm_GyrB IC50
T1 construct: 15 nM Msm; GyrB, 650 μM ATP, and compound in dimethyl sulfoxide
How it was run: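 ATPase activity of 15 nM Msm. GyrB was measured with 650 μM ATP in 50 mM HEPES pH 7.7 containing 250 mM potassium glutamate, 200 mM KCl, 2 mM MgCl2, 2% glycerol, 1 mM DTT and 0.005% Brij-35, with compound added in DMSO. Released phosphate was detected with an ammonium molybdate/malachite green reagent plus stabilizer.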

M. tuberculosis = assay: Mycobacteria susceptibility testing, Microplate Alamar Blue Assay, Mtu MIC; format: cell-based, Mycobacterium tuberculosis (Mtu); conditions: Mycobacterium tuberculosis
Spn548 = assay: Bacterial susceptibility testing in liquid media, Spn548 MIC; conditions: Streptococcus pneumoniae, 24 h, read-out: Spn548 Mean MIC
Eco-tolC = assay: Bacterial susceptibility testing in liquid media, Eco-tolC MIC; conditions: Escherichia coli, read-out: Eco-tolC MIC
From the text: Compounds may be tested for antimicrobial activity by susceptibility testing in liquid media. Compounds may be dissolved in dimethylsulfoxide and tested in 10 doubling dilutions in the susceptibility assays. The organisms used in the assay may be grown overnight on suitable agar media and then suspended in a liquid medium appropriate for the growth of the organism. The suspension can be a 0.5 McFarland and a further 1 in 10 dilution can be made into the same liquid medium to prepare the final organism suspension in 100 μL. Plates can be incubated under appropriate conditions at 37° C. for 24 hrs prior to reading.

T1 sequence (A0QNE0 whole entry): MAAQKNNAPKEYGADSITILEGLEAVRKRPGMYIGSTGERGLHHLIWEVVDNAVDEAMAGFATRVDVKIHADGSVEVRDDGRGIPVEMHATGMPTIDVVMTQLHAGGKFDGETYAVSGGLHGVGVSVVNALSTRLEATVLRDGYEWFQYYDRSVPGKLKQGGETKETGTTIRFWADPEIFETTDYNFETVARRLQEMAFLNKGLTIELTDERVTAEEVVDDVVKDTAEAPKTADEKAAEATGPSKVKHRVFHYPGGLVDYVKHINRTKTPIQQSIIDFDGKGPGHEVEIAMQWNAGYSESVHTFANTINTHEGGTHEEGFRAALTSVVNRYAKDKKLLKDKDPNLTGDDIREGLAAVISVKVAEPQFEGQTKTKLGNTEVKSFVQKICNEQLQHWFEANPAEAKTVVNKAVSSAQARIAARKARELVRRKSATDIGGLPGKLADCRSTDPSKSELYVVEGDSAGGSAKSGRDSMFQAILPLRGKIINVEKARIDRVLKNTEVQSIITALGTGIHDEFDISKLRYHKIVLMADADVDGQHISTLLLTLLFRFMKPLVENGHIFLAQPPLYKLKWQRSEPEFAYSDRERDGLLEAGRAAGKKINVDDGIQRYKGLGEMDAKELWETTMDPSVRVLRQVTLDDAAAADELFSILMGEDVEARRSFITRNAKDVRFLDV

In the case of `CCNC(=O)Nc1nc2cc(-c3cccnc3OC)c(OCC3CCOCC3)nc2s1` [Example 61, 1-ethyl-3-[6-(2-methoxypyridin-3-yl)-5-(tetrahydro-2H-pyran-4-ylmethoxy)[1,3]thiazolo[5,4-b]pyridin-2-yl]urea], the IC50 (Msm. GyrB) is reported as 4.74 nM, the MIC (M. tuberculosis) is reported as over 4 µg/mL and the MIC (Spn548) is reported as 0.25 µg/mL (≈ 0.564 µM). For the same compound, the MIC (Eco-tolC) was 16 µg/mL (≈ 36.1 µM).
`CCNC(=O)Nc1nc2cc(-c3c(C)noc3C)c(OCC3CCOCC3)nc2s1` [Example 62, 1-[6-(3,5-dimethylisoxazol-4-yl)-5-(tetrahydro-2H-pyran-4-ylmethoxy)[1,3]thiazolo[5,4-b]pyridin-2-yl]-3-ethylurea] was tested, and the IC50 (Msm. GyrB) was 727 nM, the MIC (M. tuberculosis) was over 4 µg/mL and the MIC (Spn548) was 8 µg/mL (≈ 18.5 µM). It also gave an MIC (Eco-tolC) of 64 µg/mL (≈ 148 µM).
For `CCNC(=O)Nc1nc2cc(-c3cncnc3)c(OC[C@H]3CCCO3)nc2s1` [Example 63, 1-ethyl-3-{6-pyrimidin-5-yl-5-[(2R)-tetrahydrofuran-2-ylmethoxy][1,3]thiazolo[5,4-b]pyridin-2-yl}urea], the IC50 (Msm. GyrB) was 2.6 nM, the MIC (M. tuberculosis) was 0.25 µg/mL (≈ 0.624 µM) and the MIC (Spn548) was 0.125 µg/mL (≈ 0.312 µM). The MIC (Eco-tolC) was 1 µg/mL (≈ 2.5 µM).
`CCNC(=O)Nc1nc2cc(-c3cncnc3)c(OC3CCOC3)nc2s1` (stereo not drawn) [Example 64, 1-ethyl-3-[6-pyrimidin-5-yl-5-(tetrahydrofuran-3-yloxy)[1,3]thiazolo[5,4-b]pyridin-2-yl]urea] was tested, and the IC50 (Msm. GyrB) was under 2.54 nM, the MIC (M. tuberculosis) was 0.125 µg/mL (≈ 0.323 µM) and the MIC (Spn548) was 0.125 µg/mL (≈ 0.323 µM). For the same compound, the MIC (Eco-tolC) was 0.5 µg/mL (≈ 1.29 µM).
`CCNC(=O)Nc1nc2cc(-c3cncnc3)c(N[C@@H](C)C(=O)OCC)nc2s1` [Example 65, Ethyl N-{2-[(ethylcarbamoyl)amino]-6-pyrimidin-5-yl[1,3]thiazolo[5,4-b]pyridin-5-yl}-L-alaninate] gave an IC50 (Msm. GyrB) of under 2.54 nM, an MIC (M. tuberculosis) of 0.125 µg/mL (≈ 0.301 µM) and an MIC (Spn548) of 0.125 µg/mL (≈ 0.301 µM). It also gave an MIC (Eco-tolC) of 4 µg/mL (≈ 9.63 µM).
For `CCNC(=O)Nc1nc2cc(-c3cnc(C#N)nc3)c(OCC3CCOC3)nc2s1` (stereo not drawn) [Example 66, 1-[6-(2-cyanopyrimidin-5-yl)-5-(tetrahydrofuran-3-ylmethoxy)[1,3]thiazolo[5,4-b]pyridin-2-yl]-3-ethylurea], the IC50 (Msm. GyrB) was under 2.54 nM, the MIC (M. tuberculosis) was under 0.043 µg/mL and the MIC (Spn548) was 0.125 µg/mL (≈ 0.294 µM). For the same compound, the MIC (Eco-tolC) was 0.5 µg/mL (≈ 1.18 µM).
Compound `CCNC(=O)Nc1nc2cc(-c3cncnc3)c(N[C@@H](C)C(=O)NC)nc2s1` [Example 67, (2S)-2-[[2-(ethylcarbamoylamino)-6-pyrimidin-5-yl-thiazolo[4,5-e]pyridin-5-yl]amino]-N-methyl-propanamide] has an IC50 (Msm. GyrB) of 15.9 nM, an MIC (M. tuberculosis) of 1.41 µg/mL (≈ 3.53 µM) and an MIC (Spn548) of 2 µg/mL (≈ 4.99 µM). For the same compound, the MIC (Eco-tolC) was over 64 µg/mL.
With `CCNC(=O)Nc1nc2cc(-c3ccc(C(F)(F)F)nc3)c(OCC3CCOC3)nc2s1` (stereo not drawn) [Example 70, 1-ethyl-3-{5-(tetrahydrofuran-3-ylmethoxy)-6-[6-(trifluoromethyl)pyridin-3-yl][1,3]thiazolo[5,4-b]pyridin-2-yl}urea] the IC50 (Msm. GyrB) was 6.92 nM, the MIC (M. tuberculosis) was 4.76 µg/mL (≈ 10.2 µM) and the MIC (Spn548) was 0.0625 µg/mL (≈ 0.134 µM). For the same compound, the MIC (Eco-tolC) was 0.25 µg/mL (≈ 0.535 µM).
In the case of `CCNC(=O)Nc1nc2cc(-c3ccc(F)nc3)c(OC3C=CCCC3)nc2s1` (stereo not drawn) [Example 72, 1-[5-(cyclohex-2-en-1-yloxy)-6-(6-fluoropyridin-3-yl)[1,3]thiazolo[5,4-b]pyridin-2-yl]-3-ethylurea], the IC50 (Msm. GyrB) is reported as 29.1 nM, the MIC (M. tuberculosis) is reported as 2 µg/mL (≈ 4.84 µM) and the MIC (Spn548) is reported as 0.0625 µg/mL (≈ 0.151 µM). The MIC (Eco-tolC) was 0.25 µg/mL (≈ 0.605 µM).
